Experimental findings from article PMC8423723, “Regulation of cadherin dimerization by chemical fragments as a trigger to inhibit cell adhesion” (Communications Biology, 2021) are described below.

By Kd is commonly meant the free concentration of one partner at which half of the binding sites on the other are occupied at equilibrium, for simple one-to-one binding. Low readings indicate higher affinity, high ones lower affinity.

Test [1] addresses T1, EC12 (P-cadherin) (Homo sapiens, UniProt P22223).
T1 construct: gene CDH3; EC1-EC2, residues 1-241, wild type; E. coli, SUMO cut; amine-coupled to CM5 chip
As to the kind of experiment: SPR ABA assay, disruption of EC12 dimer on chip. The class given is binding. The settings on record: 100 µM compound, 2 µM EC12 in solution A.

Test [2] addresses T2, REC12 (P-cadherin monomer mutant) (Homo sapiens, UniProt P22223, INS0R).
T2 construct: gene CDH3; EC12 (EC1-EC2, residues 1-241) with Arg inserted at N terminus; biotinylated for chip capture; E. coli Rosetta2(DE3), SUMO tag cut with Ulp1; monomer
Description: SPR, Scatchard analysis of equilibrium responses. The test is classed as binding.

Test [3] has as its target T3, REC12 (P-cadherin monomer mutant) (Homo sapiens, UniProt P22223).
T3 construct: gene CDH3
The note with it: pH 7.5, 25 °C, 3 mM CaCl2, 5% DMSO; construct printed only as P-cadherin.

Test [4] concerns the target C-terminally His-tagged P-cadherin MEC12 (X dimer), on liposomes (human).
Test [5] addresses P-cadherin MEC12 (X dimer) K14A. Description: SEC-MALS. The settings on record: N = 1; parent: est. 33; read off a plot. (In gel filtration, larger molecules generally elute earlier.)

T3 sequence (P22223 107-348, change not shown): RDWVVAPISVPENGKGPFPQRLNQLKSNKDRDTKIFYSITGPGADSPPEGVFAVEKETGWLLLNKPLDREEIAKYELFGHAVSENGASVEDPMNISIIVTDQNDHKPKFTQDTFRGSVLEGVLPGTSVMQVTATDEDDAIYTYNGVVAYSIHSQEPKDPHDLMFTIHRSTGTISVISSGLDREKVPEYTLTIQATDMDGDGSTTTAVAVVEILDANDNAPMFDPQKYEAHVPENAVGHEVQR
T2 sequence (P22223 107-348, stated change not applied): as the sequence (P22223 107-348, change not shown) above
T1 sequence (P22223 108-348): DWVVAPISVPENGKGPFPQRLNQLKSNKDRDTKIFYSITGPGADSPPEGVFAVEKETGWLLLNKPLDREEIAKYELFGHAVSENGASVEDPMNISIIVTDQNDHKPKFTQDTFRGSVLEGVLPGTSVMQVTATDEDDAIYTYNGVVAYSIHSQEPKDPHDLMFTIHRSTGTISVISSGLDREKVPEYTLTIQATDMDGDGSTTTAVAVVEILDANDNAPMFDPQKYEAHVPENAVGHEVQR

With `Cc1[nH]c2ccc(Cl)cc2c1CCN` [Hit 1], the “SPR ABA assay, disruption of EC12 dimer on chip” value in test [1] is “These compounds bound to and disrupted the dimerization”. The compound further showed an equilibrium dissociation constant (Kd) in test [2] of roughly 916 µM.
For the compound `NCCc1c[nH]c2ccccc12` [tryptamine], in test [3], the SPR direct binding result was “only tryptamine bound to P-cadherin”.
With “C-terminally His-tagged P-cadherin MEC12 (X dimer), on liposomes (domain or fragment)”, in test [4], the kobs of liposome aggregation (optical density at 650 nm after addition of CaCl2, one-phase association), in the absence of Hit 1; no aggregation with EDTA or without MEC12 is 0.0086 and the kobs of liposome aggregation (optical density at 650 nm after addition of CaCl2, one-phase association), in the presence of Hit 1 turned out to be 0.0033.
As to “P-cadherin MEC12 (X dimer) as used in SEC-MALS and HDX-MS K14A”, in test [5], the other: molecular weight (SEC-MALS) is 24 kDa.
